Experimental data published in US6593329B1, “Method for the treatment or prevention of coronary graft vasospasm” (Orion Corporation, priority 1999, dated 2003).
Values joined by “and” are separate entries in the source; they are usually repeats but may differ in a detail not shown here. Equal values may be shown once.

Tested on: human internal mammary artery (IMA) preparations
Test: Prevention of noradrenaline-induced vasospasm in isolated human internal mammary artery rings (isolated ring technique)
Assay type: cell-based
Details: for Prevention (%) of graft vasospasm (as % of maximal attainable spasm): IMA rings contracted with noradrenaline 1-10 μM, per patient and mean
Method: The effect of levosimendan to prevent vasospasm was investigated in human internal mammary artery (IMA) preparations from coronary by-pass surgery (8 patients) at three different levels of vascular tone using isolated ring technique. It is known that IMA may produce spasm during and after graft surgery especially at low perfusion pressure (at or lower than 50 mmHg).
Isometric stretch was applied perpendicular to the direction of blood flow for 45 min in organ bath containing oxygenated Krebs-Henseleit solution (37° C., pH 7.4). Magnitude of stretch (in mN) was converted into quasi-equivalent pressure values (23, 46 and 92 mmHg) according to the Laplace law. Isolated IMA rings were contracted with noradrenaline (1-10 μM), and at the steady state contraction, levosimendan (0.3 and 0.6 μM) was added cumulatively.

For CC1CC(=O)NN=C1c1ccc(NN=C(C#N)C#N)cc1 (single isomer, unassigned; (-)) [Levosimendan, (−)-[[4-(1,4,5,6-tetrahydro-4-methyl-6-oxo-3-pyridazinyl)phenyl]hydrazono]propanedinitrile], the “Prevention (%) of graft vasospasm (as % of maximal attainable spasm)” value (“Prevention (%) of graft vasospasm” for short) (23 mmHg transmural pressure, levosimendan 0.3 μM) was 46.1% and 27.2% and 37.5% and 60.0% and 46.7% and 40.0%, the “Prevention (%) of graft vasospasm” value (23 mmHg transmural pressure, levosimendan 0.6 μM) was 76.9% and 125.0% and 45.5% and 62.5% and 0% and 110.0% and 113.3% and 113.0% and the “Prevention (%) of graft vasospasm” value (46 mmHg transmural pressure, levosimendan 0.3 μM) was 28.6% and 75.0% and 13.8% and 8.3% and 57.1% and 16.2% and 37.8% and 17.3%. The “Prevention (%) of graft vasospasm” value (46 mmHg transmural pressure, levosimendan 0.6 μM) was 85.7% and 100.0% and 41.4% and 27.1% and 114.3% and 21.6% and 78.4% and 57.7%, the “Prevention (%) of graft vasospasm” value (92 mmHg transmural pressure, levosimendan 0.3 μM) was 16.6% and 0% and 3.9% and 8.2% and 9.6% and the “Prevention (%) of graft vasospasm” value (92 mmHg transmural pressure, levosimendan 0.6 μM) was 61.6% and 22.0% and 14.9% and 34.7% and 26.7%. For the same compound, the “Prevention of graft vasospasm (result in words)” value (clinically relevant submicromolar concentrations, in particular at low perfusion pressure values) was “prevents graft vasospasm”.
